Patent publication US12599572B2, “Solid lipid nanoparticles of curcumin” (priority 2018, dated 2026)
In brackets after ≈: the same amount, converted by molar mass. Read-outs that look alike come from different tables or passages of the source.

Columns and labels:
[1] = Pharmacokinetic studies, single oral dose; type: in vivo, Wistar Rats; conditions: rats, 100 mg/kg single oral dose
Protocol: For in vivo pharmacokinetic studies, female Wistar Rats were used. The animals were divided into 3 groups (n=3). […] The blood samples (0.5 ml) were withdrawn from retro-orbital plexus at different time intervals and collected into microcentrifuge tubes containing EDTA. Plasma was separated by centrifuging the blood samples at 10000 rpm for 6 min at 5° C. After centrifugation, the plasma obtained was stored at −20° C. until analysis. […] To 50 μl of plasma samples in an eppendorf tube, 150 μl of methanol and 300 μl of acetonitrile:water (1:1) was added. The sample was vortexed for 5 min and centrifuged at 15,000 rpm to separate precipitated proteins. Supernatant was transferred to suitably labelled tubes. The sample was filtered through 0.2 μm syringe filter and was used for analysis using the developed Ultra high pressure liquid chromatography (UPLC) method. The pharmacokinetic parameters were calculated using non-compartmental model. The area under the concentration-time curve from time zero to time t (AUCo-t) was calculated using the trapezoidal method. Peak concentration (Cmax) and the time at which the peak concentration is achieved (Tmax), were obtained directly from the individual concentration-time profiles. All values were corrected for the spiked concentration. The area under the concentration-time curve from time zero to infinity was calculated by: AUCo-x=AUCo-+Ct/Ke, where Ct is the drug concentration observed at the last time and Ke is the apparent elimination rate constant obtained from the terminal slope of the individual concentration-time curves after logarithmic transformation of the concentration values and application of linear regression. AUMC was determined by plotting concentration*time (ct) versus time (t) using trapezoidal method. Mean residence time (MRT) was calculated by: MRT=AUMC/AUC.

[2] = Photostability study (ICH); type: physicochemical
Protocol: The above samples were placed in photostability chamber and exposed to light providing illumination of not less than 1.2 million lux hours for 10 days. After 10 days the containers were withdrawn and […] evaluated for total drug content, entrapment efficiency, particle size, zeta-potential and PDI. Samples of free drug, […] and C-SLNbent were analysed for total drug content.

[3] = Degradation studies (hydrolytic stability at pH 1.2, 6.8, 7.4 and 9); type: physicochemical; conditions: for k value: zero order
Protocol: It was further diluted to 5 μg/ml with respective buffers (pH 1.2, pH 6.8, pH 7.4 and pH 9). In case of C-SLNaq, Iml dispersion was placed in a dialysis bag and dialyzed against methanol (100 ml) at room temperature for 45 minutes to remove unentrapped drug. […] The stock solution and sample solution were prepared in amber coloured volumetric flasks to avoid photodegradation. The solutions were prepared and incubated at 37° C. […] […] Presence of water quenches the fluorescent intensity of curcumin. The samples were thus analysed subsequently using the UV/Visible spectrophotometer at λmax425 nm. The absorbance read at zero time was considered as 100% and change in concentration and % degradation was determined accordingly.
The graph between concentration versus time, log concentration versus time and percent drug remaining versus time were plotted.

[4] = In-vitro release (Franz-diffusion cells, dialysis membrane); type: physicochemical
Protocol: Jacketed franz-diffusion cells were used for the determination of in-vitro release of free curcumin and curcumin from C-SLNaq. These cells consist of the donor and the receptor chamber between which dialysis membrane is positioned. The dialysis membrane was soaked in double distilled water for 12 h prior to use. The whole system was water jacketed and thermostatically controlled by an external circulating water bath at 37° C.±1° C. The used receptor media consisted of 50% ethanol in distilled water. […] The receptor media was stirred throughout the experiment, using a magnetic stirrer. Iml aliquots were withdrawn regularly from the receptor compartment at various times starting at 30 min and replaced by an equal volume of fresh receptor medium. The samples were analysed, immediately, spectrophotometrically at 425 nm.

[5] = combined with piperine, rats (Shoba et al., 1998); cited from earlier work
Solubility of curcumin = type: physicochemical

Work on `COc1cc(C=CC(=O)CC(=O)C=Cc2ccc(O)c(OC)c2)ccc1O` [Free curcumin, 1,7-bis(4-hydroxy-3-methoxyphenyl)-1,6-hepadiene-3,5-dione] yielded an AUC(0-inf) ([1]; female, Wistar, rat, plasma) of 2.69 ng·h/mL, a Cmax ([1]; female, Wistar, rat, plasma) of 1.79 ng/mL and an MRT ([1]; female, Wistar, rat, plasma) of 2 h. The Tmax ([1]; female, Wistar, rat, plasma) was 2 h, the “AUMC0-∞” value [1] was 5.38 h^2*ng/ml and the TDC % ([2]; Amber glass, 0 day) was 100.00 ± 0%. The TDC % ([2]; Amber glass, 10 days) was 78.31 ± 7.1%, the TDC % ([2]; Transparent, 0 day) was 100.00 ± 0% and the TDC % ([2]; Transparent, 10 days) was 65.51 ± 7.5%. For the same molecule, the degradation ([2]; amber coloured containers, 10 days) was 21.7%, the degradation ([2]; transparent containers, 10 days) was 35% and the half-life at 5 μg/ml ([3]; alkaline borate buffer pH 9, pH 9) was 0.669 h. For the same molecule, the half-life at 5 μg/ml ([3]; buffer pH 1.2, pH 1.2) was 17.3 h, the “order of degradation kinetics” value ([3]; investigated pH conditions (C-SLN: except pH 9)) was “zero order” and the Percentage remaining ([3]; pH 1.2, 0 h) was 100.00 ± 0.06%. For the same molecule, the Percentage remaining ([3]; pH 1.2, 0.08 h) was 89.23 ± 0.02%, the Percentage remaining ([3]; pH 1.2, 0.25 h) was 88.29 ± 0.01% and the Percentage remaining ([3]; pH 1.2, 0.5 h) was 85.60 ± 0.01%. For the same molecule, the Percentage remaining ([3]; pH 1.2, 1 h) was 87.24 ± 0.001%, the Percentage remaining ([3]; pH 1.2, 2 h) was 72.37 ± 0.02% and the Percentage remaining ([3]; pH 1.2, 3 h) was 68.74 ± 0.03%. The Percentage remaining ([3]; pH 1.2, 4 h) was 62.76 ± 0.01%, the Percentage remaining ([3]; pH 1.2, 5 h) was 61.01 ± 0.01% and the Percentage remaining ([3]; pH 1.2, 6 h) was 53.40 ± 0.02%. It also gave a Percentage remaining ([3]; pH 1.2, 24 h) of 15.76 ± 0.01%, a degradation ([3]; pH 1.2, 24 h) of no more than 85% and a degradation ([3]; pH 1.2, upto 6 h) of no more than 50%. For the same molecule, the degradation ([3]; pH 1.2 medium, 4h) was roughly 40%, the Percentage remaining ([3]; pH 6.8, 0 h) was 100.00 ± 0.04% and the Percentage remaining ([3]; pH 6.8, 0.08 h) was 94.93 ± 0.06%. The Percentage remaining ([3]; pH 6.8, 0.25 h) was 87.63 ± 0.04%, the Percentage remaining ([3]; pH 6.8, 0.5 h) was 81.95 ± 0.08% and the Percentage remaining ([3]; pH 6.8, 1 h) was 79.72 ± 0.06%. For the same molecule, the Percentage remaining ([3]; pH 6.8, 2 h) was 66.73 ± 0.05%, the Percentage remaining ([3]; pH 6.8, 3 h) was 62.68 ± 0.07% and the Percentage remaining ([3]; pH 6.8, 4 h) was 57.81 ± 0.05%. For the same molecule, the Percentage remaining ([3]; pH 6.8, 5 h) was 43.61 ± 0.08%, the Percentage remaining ([3]; pH 6.8, 6 h) was 23.12 ± 0.04% and the degradation ([3]; pH 6.8, 6 h) was 77%. The Percentage remaining ([3]; pH 6.8, 24 h) was 11.36 ± 0.04%, the degradation ([3]; pH 6.8, 24 h) was 89% and the Percentage remaining ([3]; pH 7.4, 0 h) was 100.0 ± 0.060%. For the same molecule, the Percentage remaining ([3]; pH 7.4, 0.08 h) was 96.33 ± 0.02%, the Percentage remaining ([3]; pH 7.4, 0.25 h) was 93.81 ± 0.04% and the Percentage remaining ([3]; pH 7.4, 0.5 h) was 84.17 ± 0.04%. The Percentage remaining ([3]; pH 7.4, 1 h) was 75.92 ± 0.04%, the Percentage remaining ([3]; pH 7.4, 2 h) was 67.20 ± 0.03% and the Percentage remaining ([3]; pH 7.4, 3 h) was 61.01 ± 0.03%. It also gave a Percentage remaining ([3]; pH 7.4, 4 h) of 49.08 ± 0.04%, a Percentage remaining ([3]; pH 7.4, 5 h) of 40.60 ± 0.03% and a Percentage remaining ([3]; pH 7.4, 6 h) of 24.31 ± 0.01%. For the same molecule, the degradation ([3]; pH 7.4, 6 h) was 75%, the Percentage remaining ([3]; pH 7.4, 24 h) was 13.99 ± 0.01% and the degradation ([3]; pH 7.4, 24 h) was 77%. It also gave a Percentage remaining ([3]; pH 9, 0 h) of 100.00 ± 0.004%, a Percentage remaining ([3]; pH 9, 0.08 h) of 82.59 ± 0.009% and a Percentage remaining ([3]; pH 9, 0.25 h) of 61.43 ± 0.004%. It also gave a Percentage remaining ([3]; pH 9, 0.5 h) of 32.76 ± 0.006%, a Percentage remaining ([3]; pH 9, 1 h) of 20.48 ± 0.001% and a Percentage remaining ([3]; pH 9, 2 h) of 15.70 ± 0.002%. For the same molecule, the Percentage remaining ([3]; pH 9, 3 h) was 9.90 ± 0.003%, the Percentage remaining ([3]; pH 9, 4 h) was 2.39 ± 0.004% and the degradation ([3]; pH 9, 4 h) was “approximately 98%”. For the same molecule, the half-life at 5 μg/ml ([3]; phosphate buffer pH 6.8, pH 6.8) was 1.32 h, the half-life at 5 μg/ml ([3]; phosphate buffer pH 7.4, pH 7.4) was 9.4 h and the k value ([3]; pH 1.2) was 0.039. The k value ([3]; pH 6.8) was 0.52, the k value ([3]; pH 7.4) was 0.073 and the k value ([3]; pH 9) was 0.95. The order of release [4] was “first order”, the release model followed [4] was “Hixon model” and the “time over which drug was released” value ([4]; receptor 50% ethanol, 37° C.) was no more than 8 h. For the same molecule, the “increase in the oral bioavailability” value [5] was 154%, the solubility (Solubility of curcumin; 50% (v/v) ethanol, aqueous with cosolvent or surfactant or cyclodextrin) was 693 µg/mL (≈ 1880 µM) and the solubility (Solubility of curcumin; water, read-out: aqueous solubility) was 0.6 µg/mL (≈ 1.63 µM). It also gave a solubility (Solubility of curcumin; water, room temperature, read-out: Solubility in water) of 0.003 ± 0.002 µg/mL (≈ 0.00814 µM).
